According to PMC6426286 (2019):

How the values were obtained:
[1] = system: G. violaceus P1 stem-loop used for crystallization (RNA, riboswitch, 5-bromocytidine at 17) GGUGGGGACGACCCCACC; test: X-ray crystallography, 1.54 Å; settings: 100 mM KCl, 2 mM MgCl2 (RNA folding); ligand soaked into ligand-free crystals; 5 mM HEPES pH 7.6 (RNA folding)
[2] = system: GVP1 (guanidine-II riboswitch P1 stem-loop) (RNA, riboswitch) GGUGGGGACGACCCCACC; test: ITC; settings: 100 mM KCl, 10 mM MgCl2; 40 mM HEPES pH 7.2, 298 K; one-set-of-sites fit
[3] = system: GVP2 (guanidine-II riboswitch P2 stem-loop) (RNA, riboswitch) GCGGGGACGACCCCGC; test: ITC; settings: 100 mM KCl, 10 mM MgCl2; 40 mM HEPES pH 7.2, 298 K; one-set-of-sites fit
[4] = system: GVP1P2 (complete guanidine-II riboswitch) (RNA, riboswitch) GGUGAGGACGACCUCACCCUUCGCAAAGUUUCGCGGGGACGACCCCGC; test: ITC; settings: 100 mM KCl, 10 mM MgCl2; 40 mM HEPES pH 7.2, 298 K; one-set-of-sites fit
[5] = system: G. violaceus P1 stem-loop used for crystallization (RNA, riboswitch, 5-bromocytidine at 17) GGUGGGGACGACCCCACC; test: X-ray crystallography, 1.41 Å; settings: 100 mM KCl, 2 mM MgCl2 (RNA folding); ligand soaked into ligand-free crystals; 5 mM HEPES pH 7.6 (RNA folding)
[6] = system: G. violaceus P1 stem-loop used for crystallization (RNA, riboswitch, 5-bromocytidine at 17) GGUGGGGACGACCCCACC; test: X-ray crystallography, 1.66 Å; settings: 100 mM KCl, 2 mM MgCl2 (RNA folding); ligand soaked into ligand-free crystals; 5 mM HEPES pH 7.6 (RNA folding)

**Q.** Which binding [1] does the source give for `CCNC(=N)N` here?
**A.** yes

**Q.** How did the Kd [2] turn out when `N=C(N)N` was run?
**A.** 68 ± 6 µM

**Q.** And the Kd [3]?
**A.** 66 ± 8 µM

**Q.** What about the Kd [4] of the same compound?
**A.** 33 ± 4 µM

**Q.** `N=C(N)NCCCCCNC(=N)N` was tested. Which Kd [4] did it give?
**A.** 5.1 ± 0.8 µM

**Q.** What about the binding [5] of the same compound?
**A.** yes

**Q.** How did the Kd [2] turn out when `N=C(N)NCCCCNC(=N)N` was run?
**A.** 4.7 ± 0.2 µM

**Q.** And the Kd [3]?
**A.** 5.9 ± 4 µM

**Q.** And the Kd [4]?
**A.** 2.2 ± 0.5 µM

**Q.** What about the binding [6] of the same compound?
**A.** yes
